According to patent US8431530B2, “Compositions and methods for treating aids or cancer by inhibiting the secretion of microparticles” (priority 2009, dated 2013):

Columns and labels:
[1] = system: HIV-1 Gag-GFP secretion, THP-1; assay: HIV-1 Gag-GFP induced secretion, fluorescent plate reader assay; type: cell-based; settings: for SMRmt/SMRwt ratio of secretion: THP-1, HIV-1 Gag-GFP; for Increase in Secretion (relative to untransfected cells), exp condition/UT: THP-1, HIV-1 Gag-GFP (sM1 column head prints GFP/sM1), 0.5 μg peptide, 48 hours
Experimental: (§1) Cells were co-transfected with 0.5 μg of pQBI-HIV Gag-GFP (expresses wild type Gag protein) and either 0.5 μg of HIV-1 Nef SMRwt, SMRmut peptide, sM1 peptide or untransfected controls with Chariot for 48 hours. The conditioned supernatants from these cultures were assayed for GFP fluorescence by plate reader.

[2] = system: HIV-1 Gag-GFP secretion, Jurkat; assay: as above; type: cell-based; settings: for SMRmt/SMRwt ratio of secretion: HIV-1 Gag-GFP; for Increase in Secretion (relative to untransfected cells), exp condition/UT: HIV-1 Gag-GFP (sM1 column head prints GFP/sM1), 0.5 μg peptide, 48 hours
Experimental: as §1

[3] = system: HIV-1 Gag-GFP secretion, HEK293; assay: as above; type: cell-based; settings: for SMRmt/SMRwt ratio of secretion: HEK293, HIV-1 Gag-GFP; for Increase in Secretion (relative to untransfected cells), exp condition/UT: HEK293, HIV-1 Gag-GFP (sM1 column head prints GFP/sM1), 0.5 μg peptide, 48 hours
Experimental: as §1

[4] = system: HIV-1 Gag-GFP secretion, U937; assay: as above; type: cell-based; settings: for SMRmt/SMRwt ratio of secretion: U937, HIV-1 Gag-GFP; for Increase in Secretion (relative to untransfected cells), exp condition/UT: U937, HIV-1 Gag-GFP (sM1 column head prints GFP/sM1), 0.5 μg peptide, 48 hours
Experimental: as §1

pNL4-3 in Jurkat cells = assay: p24 assay of virion production after pNL4-3 co-transfection; type: cell-based, HIV; settings: for amount of virus production (in words, Table I): 96 hours, pNL4-3 co-transfection; for p24 / Effect (a/b): Jurkat; for p24: co-transfected with pNL4-3; for Effect (a/b): p24 of sample / p24 of pNL4-3 + sM1
Experimental: I. Jurkat cells were co-transfected as shown below: (transfection efficiency 30-40% by Chariot Kit):
pNL4-3 is a clone containing the viral genome. Transfection into cells allows expression of the viral genome and ultimately virion formation and release. The amount of virion production in the extracellular supernatant is measured through p24 protein (viral protein). Samples were collected at 48 hours and 96 hours post-infection.
At 48 hr postinfection two plates in each group were removed and analyzed by: • a. p24 assay • b. Nef assay • c. Infectivity assay • At 96 hr postinfection the other two plates in each group were removed and analyzed by: • a. p24 assay • b. Nef assay • c. Infectivity assay

MDA-MB-231 cells = assay: Exosome (AChE marker) secretion from tumor cells, immunoblot; type: cell-based, human; settings: MDA-MB-231, Chariot transfection, 48 hr, immunoblot densitometry normalized to tubulin; dose dependency in both compartments
Text: FIG. 1 is a composite of diagrams showing the synthetic HIV-1 NefSMRwt peptide (antagonist) and HIV-1 NefSMRmt peptide (negative control) (panel A); the vector constructs expressing HIV-1 NefSMRwt peptide fused with GFP or HIV-1 NefSMRmt peptide fused with GFP (panel B); and the amount of acetylcholinesterase, a marker for exosomes, in MDA-MB-231 cells transfected with either HIV-1 NefSMRwt peptide (panelC) or SMRmt peptide (panel D). Untransfected MDA-MB-231 cells were used as negative controls. The cells were cultured for 48 hours in serum-free medium. One ml of supernatant was spun at 400,000×g. Supernatant pellets or set volume of cell lysate were run on PAGE, blotted, and probed with anti-AchE mAb (Acetylcholinesterase—1:1000 dilution; marker for exosomes). The cell lyasates were reprobed with anti-Tubulin mAb (1:4000). Bands were measured by densitometry, normalized against intracellular tubulin. Data shown here as percent relative to the untransfected control.
MDA-MB-231 cells were derived from human breast adenocarcinoma and […], and were obtained from the American Type Culture Collection (Manassas, Va.). […]
Pellets were resuspended in 1×SDS-PAGE loading buffer, separated by SDS-PAGE. […] Protein bands were detected by Western Blotting Luminol Reagent (Santa Cruz Biotechnology, Inc., Santa Cruz, Calif.). […]

| Substance | SMRmt/SMRwt ratio of secretion [1] [y] | Increase in Secretion (relative to untransfected cells), exp condition/UT [1] [x] | Gag virus-like particle release (in words, Table II) ([2]; Gag-GFP alone, HEK293, THP-1, U937) | SMRmt/SMRwt ratio of secretion [2] [y] | Increase in Secretion (relative to untransfected cells), exp condition/UT [2] [x] | SMRmt/SMRwt ratio of secretion [3] [y] | Increase in Secretion (relative to untransfected cells), exp condition/UT [3] [x] | SMRmt/SMRwt ratio of secretion [4] [y] | Increase in Secretion (relative to untransfected cells), exp condition/UT [4] [x] | amount of virus production (in words, Table I) (pNL4-3 in Jurkat cells) | p24 (pNL4-3 in Jurkat cells; 48 hr) [pg/mL] | Effect (a/b) (pNL4-3 in Jurkat cells; 48 hr) | p24 (pNL4-3 in Jurkat cells; 96 hr) [pg/mL] | Effect (a/b) (pNL4-3 in Jurkat cells; 96 hr) | AChE (exosome marker) intracellularly and in the cell supernatant (MDA-MB-231 cells) |
| --- | --- | --- | --- | --- | --- | --- | --- | --- | --- | --- | --- | --- | --- | --- | --- |
| H-VGFPVAAVGFPVDYKDDDDK-OH [SMRwt] | 1 | 41.3 | no effect on Gag virus-like particle release | 1 | 47.46 | 1 | 24.22 | 1 | 43.95 | reduced drastically | 0 | 1 | 0 | <0.033 | knocked down AChE intracellularly and in the cell supernatant |
| H2N-AGFPVAAAGFPVDYKDDDDK-OH (H-AGFPVAAAGFPVDYKDDDDK-OH) [SMRmt] | 1.08 | 45.06 |  | 1.22 | 58.22 | 1.08 | 25.96 | 1 | 43.82 | no effect | 0 | 1 | 15 | 0.5 | no effect |
